By EC50 is commonly meant the concentration needed to bring the measured effect to its halfway point. High values mean lower potency in that assay, low ones higher potency in that assay.

For the series, the system named is Dkk1-LRP5-TCF-Luciferase. The series can be described thus: Functional Dkk1-LRP5-TCF-Luciferase Assay in U2OS Cells. The following applies: for fold induction at 2 µM: read-out: B = TCF ACTIVITY/DMSO CONTROL Fold induction @ 2.0 uM, 2.0 uM compound; for fold induction at 20 µM: read-out: C = TCF ACTIVITY/DMSO CONTROL Fold induction @ 20.0 uM, 20.0 uM compound; for A = MAX FOLD Induction/DMSO CONTROL: maximum fold induction over DMSO control.

Like-named read-outs stand apart in the source and are kept apart here.

For the compound `c1ccc2cc(-c3ccnc(N4CCC4)n3)ccc2c1` [2-azetidin-1-yl-4-(2-naphthyl)pyrimidine], under “Homo sapiens, U2OS”, the fold induction at 2 µM was 1.37 and the fold induction at 20 µM turned out to be 1.58.

Regarding `CC(C)CNCC1CCN(c2nccc(-c3ccc4ccccc4c3)n2)CC1` [2-methyl-N-({1-[4-(2-naphthyl)pyrimidin-2-yl]piperidin-4-yl}methyl)propan-1-amine], the “A = MAX FOLD Induction/DMSO CONTROL” value turned out to be 1.480 fold. Moreover, where the note is “Homo sapiens, U2OS”, the fold induction at 2 µM was 1.4 and the fold induction at 20 µM turned out to be 0.14.

In the case of `CC(C)(C)NCC1CCN(c2nccc(-c3ccc4ccccc4c3)n2)CC1` [2-methyl-N-({1-[4-(2-naphthyl)pyrimidin-2-yl]piperidin-4-yl}methyl)propan-2-amine], the “A = MAX FOLD Induction/DMSO CONTROL” value is on record as 3.890 fold. Further, for the setting “Homo sapiens, U2OS”, the half-maximal effective concentration (EC50) was 10.6 µM, the fold induction at 2 µM is 1.49 and the fold induction at 20 µM was 5.76.

Regarding `CC(C)(C)NCC1CCN(c2nccc(-c3ccc4ccccc4c3)n2)C1` (centres unmarked) [2-methyl-N-({1-[4-(2-naphthyl)pyrimidin-2-yl]pyrrolidin-3-yl}methyl)propan-2-amine], the “A = MAX FOLD Induction/DMSO CONTROL” value turned out to be 3.106 fold. In addition, for the setting “Homo sapiens, U2OS”, the EC50 stood at 1.37 µM, the fold induction at 2 µM was 1.99 and the fold induction at 20 µM worked out at 0.018.

As for `CC(C)(C)NC[C@H]1CCN(c2nccc(-c3ccc4ccccc4c3)n2)C1` [2-methyl-N-({(3R)-1-[4-(2-naphthyl)pyrimidin-2-yl]pyrrolidin-3-yl}methyl)propan-2-amine], the “A = MAX FOLD Induction/DMSO CONTROL” value is reported as 2.300 fold. In addition, where the note is “Homo sapiens, U2OS”, the fold induction at 2 µM was 2.24 and the fold induction at 20 µM was found to be 0.01.

For the compound `CC(C)(C)NC[C@@H]1CCN(c2nccc(-c3ccc4ccccc4c3)n2)C1` [2-methyl-N-({(3S)-1-[4-(2-naphthyl)pyrimidin-2-yl]pyrrolidin-3-yl}methyl)propan-2-amine], the “A = MAX FOLD Induction/DMSO CONTROL” value is 4.610 fold. Also, where the note is “Homo sapiens, U2OS”, the fold induction at 2 µM came out at 2.44 and the fold induction at 20 µM is 0.06.

Turning to `NCCC1CCN(c2nccc(-c3ccc4ccccc4c3)n2)CC1` [2-{1-[4-(2-naphthyl)pyrimidin-2-yl]piperidin-4-yl}ethanamine], the “A = MAX FOLD Induction/DMSO CONTROL” value is 1.420 fold. In addition, where the note is “Homo sapiens, U2OS”, the fold induction at 2 µM turned out to be 2.15 and the fold induction at 20 µM worked out at 0.005.

Turning to `OCCC1CCN(c2nccc(-c3ccc4ccccc4c3)n2)CC1` [2-{1-[4-(2-naphthyl)pyrimidin-2-yl]piperidin-4-yl}ethanol], the “A = MAX FOLD Induction/DMSO CONTROL” value is listed as 1.840 fold. In addition, where the note is “Homo sapiens, U2OS”, the fold induction at 2 µM is 1.54 and the fold induction at 20 µM is 1.64.

On to `CS(=O)(=O)OCCC1CCN(c2nccc(-c3ccc4ccccc4c3)n2)CC1` [2-{1-[4-(2-naphthyl)pyrimidin-2-yl]piperidin-4-yl}ethyl methanesulfonate], for which, where the note is “Homo sapiens, U2OS”, the fold induction at 2 µM amounted to 1.02 and the fold induction at 20 µM is 1.18.

`NCCC1CCN(c2nccc(-c3ccc4ccccc4c3)n2)C1` (centres unmarked) [2-{1-[4-(2-naphthyl)pyrimidin-2-yl]pyrrolidin-3-yl}ethanamine]: the “A = MAX FOLD Induction/DMSO CONTROL” value is given as 5.940 fold. For the setting “Homo sapiens, U2OS”, the EC50 came out at 0.7 µM and the fold induction at 2 µM was found to be 4.23.

For `CN1CCN(CC2CCN(c3nccc(-c4ccc5ccccc5c4)n3)C2)CC1` (centres unmarked) [2-{3-[(4-methylpiperazin-1-yl)methyl]pyrrolidin-1-yl}-4-(2-naphthyl)pyrimidine], the “A = MAX FOLD Induction/DMSO CONTROL” value stood at 1.340 fold. Moreover, the fold induction at 2 µM (Homo sapiens, U2OS) stood at 2.7.

With `CN1CCN(CC2CCN(c3nccc(-c4ccc5ccccc5c4)n3)CC2)CC1` [2-{4-[(4-methylpiperazin-1-yl)methyl]piperidin-1-yl}-4-(2-naphthyl)pyrimidine], the “A = MAX FOLD Induction/DMSO CONTROL” value turned out to be 5.430 fold. For the same compound, under “Homo sapiens, U2OS”, it took 1.19 µM to reach a half-maximal effect (EC50) and the fold induction at 2 µM stood at 5.46.

For the compound `NCC[C@H]1CCCN1c1nccc(-c2ccc3ccccc3c2)n1` [2-{(2R)-1-[4-(2-naphthyl)pyrimidin-2-yl]pyrrolidin-2-yl}ethanamine], the “A = MAX FOLD Induction/DMSO CONTROL” value is 2.270 fold. For the setting “Homo sapiens, U2OS”, the fold induction at 2 µM amounted to 2.72 and the fold induction at 20 µM stood at 0.01.

With `CN1CCN(C(=O)[C@H]2CCCN2c2nccc(-c3ccc4ccccc4c3)n2)CC1` [2-{(2R)-2-[(4-methylpiperazin-1-yl)carbonyl]pyrrolidin-1-yl}-4-(2-naphthyl)pyrimidine], the “A = MAX FOLD Induction/DMSO CONTROL” value was determined as 1.600 fold. In addition, for the setting “Homo sapiens, U2OS”, the fold induction at 2 µM worked out at 1.01 and the fold induction at 20 µM was 2.09.

With `NCC[C@@H]1CCCN1c1nccc(-c2ccc3ccccc3c2)n1` [2-{(2S)-1-[4-(2-naphthyl)pyrimidin-2-yl]pyrrolidin-2-yl}ethanamine], the “A = MAX FOLD Induction/DMSO CONTROL” value came to 2.950 fold. In addition, for the setting “Homo sapiens, U2OS”, the fold induction at 2 µM is 4.08 and the fold induction at 20 µM worked out at 0.02.

In the case of `CN1CCN(C(=O)[C@@H]2CCCN2c2nccc(-c3ccc4ccccc4c3)n2)CC1` [2-{(2S)-2-[(4-methylpiperazin-1-yl)carbonyl]pyrrolidin-1-yl}-4-(2-naphthyl)pyrimidine], under “Homo sapiens, U2OS”, the fold induction at 2 µM stood at 0.9 and the fold induction at 20 µM is 1.6.

Turning to `c1ccc2cc(-c3ccnc(N4CC[C@@H](N5CCN6CCCCC6C5)C4)n3)ccc2c1` (stereo partly drawn) [2-{(3R)-1-[4-(2-naphthyl)pyrimidin-2-yl]pyrrolidin-3-yl}octahydro-2H-pyrido[1,2-a]pyrazine], the fold induction at 2 µM (Homo sapiens, U2OS) amounted to 1.3.

For `CN1CCN(C[C@H]2CCN(c3nccc(-c4ccc5ccccc5c4)n3)C2)CC1` [2-{(3R)-3-[(4-methylpiperazin-1-yl)methyl]pyrrolidin-1-yl}-4-(2-naphthyl)pyrimidine], the “A = MAX FOLD Induction/DMSO CONTROL” value worked out at 2.180 fold. Also, where the note is “Homo sapiens, U2OS”, the fold induction at 2 µM amounted to 2.5 and the fold induction at 20 µM was 0.01.

`CN1CCN(C[C@@H]2CCN(c3nccc(-c4ccc5ccccc5c4)n3)C2)CC1` [2-{(3S)-3-[(4-methylpiperazin-1-yl)methyl]pyrrolidin-1-yl}-4-(2-naphthyl)pyrimidine]: the fold induction at 2 µM (Homo sapiens, U2OS) was found to be 1.8.

For the compound `CN(CCCO)[C@@H]1CCN(c2nccc(-c3ccc4ccccc4c3)n2)C1` [3-(methyl{(3R)-1-[4-(2-naphthyl)pyrimidin-2-yl]pyrrolidin-3-yl}amino)propan-1-ol], the fold induction at 20 µM (Homo sapiens, U2OS) amounted to 3.3.

In the case of `CN(CCCO)[C@H]1CCN(c2nccc(-c3ccc4ccccc4c3)n2)C1` [3-(methyl{(3S)-1-[4-(2-naphthyl)pyrimidin-2-yl]pyrrolidin-3-yl}amino)propan-1-ol], where the note is “Homo sapiens, U2OS”, the fold induction at 2 µM was 1.1.

For the compound `NC(=O)N1CC(CNc2nccc(-c3ccc4ccccc4c3)n2)C1` [3-({[4-(2-naphthyl)pyrimidin-2-yl]amino}methyl)azetidine-1-carboxamide], for the setting “Homo sapiens, U2OS”, the fold induction at 2 µM was found to be 1.09 and the fold induction at 20 µM is 1.58.

Turning to `c1ccc(N2CCN(c3nccc(-c4ccc5ccccc5c4)n3)CC2)nc1` [4-(2-naphthyl)-2-(4-pyridin-2-ylpiperazin-1-yl)pyrimidine], the fold induction at 2 µM (Homo sapiens, U2OS) is 1.8.

As for `c1cnc(N2CCN(c3nccc(-c4ccc5ccccc5c4)n3)CC2)nc1` [4-(2-naphthyl)-2-(4-pyrimidin-2-ylpiperazin-1-yl)pyrimidine], for the setting “Homo sapiens, U2OS”, the fold induction at 2 µM came out at 1.02 and the fold induction at 20 µM stood at 1.24.

In the case of `c1ccc2cc(-c3ccnc(N4CCC(CN5CCCCC5)C4)n3)ccc2c1` (centres unmarked) [4-(2-naphthyl)-2-[3-(piperidin-1-ylmethyl)pyrrolidin-1-yl]pyrimidine], under “Homo sapiens, U2OS”, the fold induction at 2 µM amounted to 1.66 and the fold induction at 20 µM was determined as 0.01.

Turning to `c1ccc2cc(-c3ccnc(N4CCC(CN5CCCC5)C4)n3)ccc2c1` (centres unmarked) [4-(2-naphthyl)-2-[3-(pyrrolidin-1-ylmethyl)pyrrolidin-1-yl]pyrimidine], the “A = MAX FOLD Induction/DMSO CONTROL” value is 7.000 fold. Further, under “Homo sapiens, U2OS”, it took 7.59 µM to reach a half-maximal effect (EC50) and the fold induction at 2 µM was found to be 1.87.

With `CC(C1CCN(c2nccc(-c3ccc4ccccc4c3)n2)CC1)[N+](=O)[O-]` (centres unmarked) [4-(2-naphthyl)-2-[4-(1-nitroethyl)piperidin-1-yl]pyrimidine], the fold induction at 20 µM (Homo sapiens, U2OS) worked out at 1.44.

`O=[N+]([O-])CC1CCN(c2nccc(-c3ccc4ccccc4c3)n2)CC1` [4-(2-naphthyl)-2-[4-(nitromethyl)piperidin-1-yl]pyrimidine]: for the setting “Homo sapiens, U2OS”, the fold induction at 2 µM worked out at 1.5 and the fold induction at 20 µM worked out at 0.68.

With `c1ccc2cc(-c3ccnc(N4CCC(CN5CCNCC5)CC4)n3)ccc2c1` [4-(2-naphthyl)-2-[4-(piperazin-1-ylmethyl)piperidin-1-yl]pyrimidine], the “A = MAX FOLD Induction/DMSO CONTROL” value is recorded as 2.510 fold. Moreover, where the note is “Homo sapiens, U2OS”, the fold induction at 2 µM was found to be 5.17 and the fold induction at 20 µM turned out to be 0.01.

As for `c1ccc2cc(-c3ccnc(N4CCC(CN5CCCCC5)CC4)n3)ccc2c1` [4-(2-naphthyl)-2-[4-(piperidin-1-ylmethyl)piperidin-1-yl]pyrimidine], the EC50 was found to be 8.59 µM. Further, under “20.0 uM compound, 20 µM”, the “C = TCF ACTIVITY/DMSO CONTROL Fold induction @ 20.0 uM” value amounted to 1.687 fold. For the same compound, for the setting “Homo sapiens, U2OS”, the 50% effective concentration (EC50) came out at 8 µM, the fold induction at 2 µM was found to be 1.09 and the fold induction at 20 µM was 2.8.

`c1ccc2cc(-c3ccnc(N4CCC(CN5CCCC5)CC4)n3)ccc2c1` [4-(2-naphthyl)-2-[4-(pyrrolidin-1-ylmethyl)piperidin-1-yl]pyrimidine] displayed an EC50 of 3.18 µM. Where the note is “Homo sapiens, U2OS”, a half-maximal effect (EC50) was put at 3.5 µM and the fold induction at 2 µM stood at 2.07.

Regarding `O=C([C@H]1CCCN1c1nccc(-c2ccc3ccccc3c2)n1)N1CCCCC1` [4-(2-naphthyl)-2-[(2R)-2-(piperidin-1-ylcarbonyl)pyrrolidin-1-yl]pyrimidine], under “Homo sapiens, U2OS”, the fold induction at 2 µM turned out to be 1.01.

`O=C([C@H]1CCCN1c1nccc(-c2ccc3ccccc3c2)n1)N1CCCC1` [4-(2-naphthyl)-2-[(2R)-2-(pyrrolidin-1-ylcarbonyl)pyrrolidin-1-yl]pyrimidine]: under “Homo sapiens, U2OS”, the fold induction at 2 µM was 1.05 and the fold induction at 20 µM was determined as 1.1.
